The values that follow come from patent publication US8673909B2, “Indole compounds and methods for treating visceral pain” (NeurAxon, Inc., priority 2007, dated 2014).

In assay [1] the target is T1, Nitric oxide synthase (neuronal, human recombinant) nNOS (Homo sapiens, UniProt P29475).
T1 construct: purchased Axxora LLC ALX-201-068
In words: nNOS (human) enzyme assay, [3H]-L-arginine to L-citrulline. Type of assay: biochemical.
Protocol: nNOS (Human), eNOS (Human) Enzyme Assay
Human nNOS and eNOS Protocol:
Procedure for Human nNOS and eNOS
Primary stock solutions of test compounds at a concentration of 6 mM are prepared. The primary stock solutions of each test compound are prepared freshly in distilled water on the day of study. […] Concentration range of test compound utilized for nNOS are 0.001 to 300 μM and for eNOS are 0.003 to 1000 μM. The vehicle of the test compound or inhibitor is used as blank control.
(§2) All incubations are performed in duplicate:
(§3) Prepare the reaction mixture on ice by adding the following components with a micropipette to a polypropylene microcentrifuge tube:
Total reaction volume is 60 μL.
(§4) Mix using a vortex mixer and incubate the above reaction mixture at 37° C. in an incubator for 30 minutes.
(§5) Add 400 μL of ice-cold Stop Buffer at the end of the incubation period to stop the reaction. (The EDTA in the Stop Buffer chelates all of the available calcium.)
(§6) Mix using a vortex mixer and transfer the reaction samples to spin cups and centrifuge using a microcentrifuge, at 13,000 rpm for 30 sec. at room temperature.
(§7) Remove the spin cups from the holder and transfer 450 μL of eluate (containing the unbound L-citrulline) to scintillation vials. Add 3 mL of scintillation fluid and quantify the radioactivity in a liquid scintillation counter.
Calculation of IC50 Values:
(§8) Data is analyzed using a Sigmoidal dose-response (variable slope) curve to determine the IC50 value of the test compound. Y=Bottom+(Top−Bottom)/(1+10^((Log IC50−X)*Hill Slope))

Assay [2] addresses 5-HT1D (Bos taurus, UniProt F1MMU1). Nature of the assay: 5-HT1D binding assay (agonist radioligand), bovine caudate membranes. The protocol:
(§1) 5-HT1D binding assays (agonist radioligand) were performed using bovine caudate membranes according to the methods of Heuring and Peroutka (J. Neurosci., 7: 894-903 (1987)). 5-HT1B (rat cerebral cortex) binding assays (agonist radioligand) were performed according to the method of Hoyer et. al. (Eur. J. Pharmacol., 118: 1-12 (1995)). For the purpose of result analysis, the specific ligand binding to the receptors is defined as the difference between the total binding and the nonspecific binding as determined in the presence of an excess of unlabelled ligand. The results are expressed as a percent of control specific binding obtained in the presence of the test compounds.

Assay [3] concerns the target T2, Nitric oxide synthase (endothelial, human recombinant) eNOS (Homo sapiens, UniProt P29474).
T2 construct: purchased Axxora LLC ALX-201-070
In words: eNOS (human) enzyme assay, [3H]-L-arginine to L-citrulline. Type of assay: biochemical.
Protocol: Human nNOS and eNOS Protocol:
Procedure for Human nNOS and eNOS
Primary stock solutions of test compounds at a concentration of 6 mM are prepared. The primary stock solutions of each test compound are prepared freshly in distilled water on the day of study. […] Concentration range of test compound utilized for nNOS are 0.001 to 300 μM and for eNOS are 0.003 to 1000 μM. The vehicle of the test compound or inhibitor is used as blank control. […] The IC50 concentration of L-NAME was run in parallel as a control.
as §2, §3
Start the reaction by addition of the substrate (in 5 µL containing 1 μCi of [^3H]-L-Arginine+2.5 μM of unlabeled L-Arginine) to the reaction mixture. Total reaction volume is 60 μL.
as §4, §5, §6, §7
Calculation of IC50 Values:
as §8

In assay [4] the target is T3, 5-HT1B (Rattus norvegicus, UniProt P28564).
T3 construct: from tissue; host or cells: rat cerebral cortex
T3 sequence (P28564 whole entry): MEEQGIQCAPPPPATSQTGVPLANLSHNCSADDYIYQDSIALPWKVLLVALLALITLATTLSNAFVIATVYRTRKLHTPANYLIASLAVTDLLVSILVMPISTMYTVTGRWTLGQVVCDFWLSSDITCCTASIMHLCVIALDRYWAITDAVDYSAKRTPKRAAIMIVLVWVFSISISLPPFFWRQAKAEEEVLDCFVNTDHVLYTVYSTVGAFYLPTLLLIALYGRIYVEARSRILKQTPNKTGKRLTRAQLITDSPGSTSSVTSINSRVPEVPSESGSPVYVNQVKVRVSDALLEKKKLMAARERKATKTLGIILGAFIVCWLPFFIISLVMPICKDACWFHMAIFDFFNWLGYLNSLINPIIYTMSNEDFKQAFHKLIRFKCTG
Nature of the assay: 5-HT1B binding assay (agonist radioligand), rat cerebral cortex. The protocol:
as §1, with “compounds. IC50 values (concentration causing a half-maximal inhibition of control specific binding) and Hill coefficients (nH) were determined by non-linear regression analysis of the competition curves using Hill equation curve fitting and the inhibition constants (Ki) were calculated from the Cheng Prusoff equation (Ki=IC50/(1+(L/KD)), where L=concentration of radioligand in the assay, and KD=affinity of the radioligand for the receptor).” for “compounds.”

The target in assay [5] is Recombinant human inducible NOS (iNOS) (Homo sapiens, UniProt P35228). Nature of the assay: Human iNOS assay, radiometric. Type of assay: biochemical. The note with it: Table 10, human iNOS; read-out: iNOSh. The protocol: Recombinant human inducible NOS (iNOS) was produced in Baculovirus-infected Sf9 cells (ALEXIS). […] 15 μL of test substances are added to the mixture with the specific enzyme and pre-incubated at RT for 15 min. • 2. […] The incubation is carried out at 37° C. for 45 min. • 4. […] An aliquot 70 μL of the supernatant is added to 100 μL scintillation fluid. • 8.
The total volume of the reaction mixture is 150 μL in every well. All assays are performed at least in duplicate. Standard deviations are 10% or less.

In assay [6] the test system is rats with experimental pancreatitis. Nature of the assay: Pancreatitis visceral pain model (DBTC), referred abdominal hypersensitivity, von Frey. It counts as in vivo, rat. The protocol:
Adult male Sprague Dawley rats (Harlan, Indianapolis, Ind.), weighing 150-200 g were maintained in a climate-controlled room with ad lib food and water on a 12-h light/dark cycle (lights on at 07:00 hours). All procedures followed the policies of the International Association for the Study of Pain and the NIH guidelines for the handling and use of laboratory animals. Studies were approved by the University of Arizona IACUC.
Pancreatitis was produced by a tail vein injection of dibutyltin dichloride (DBTC, Aldrich, Milwaukee, Wis., 0.25 cc) dissolved in 100% ethanol at a dose of 8 mg/kg under isofluorane anesthesia (2-3 liters/min, 4.0%/vol until anesthetized, then 2.5%/vol throughout the procedure) (Vera-Portocarrero et al., 2006). Control animals were injected with the vehicle solution only (100% ethanol, 0.25 cc).
Referred abdominal hypersensitivity in the pancreatitis model was quantified by measuring the number of withdrawals events evoked by application of a calibrated von Frey filament (determined by either abdominal withdrawal, licking of the abdominal area, or whole body withdrawal). Rats were placed inside Plexiglas boxes on an elevated fine fiberglass screen mesh and acclimated for 30 minutes before testing. A 4 g von Frey filament was applied from underneath through the mesh floor, to the abdominal area at different points on the surface. […] The mean occurrence of withdrawal events in each trial is expressed as the number of responses to 10 applications as previously described (Vera-Portocarrero et al., 2003).
Significant differences between each experimental group for the behavioral test across time were detected by a two-factor ANOVA follow by the Fishers Least Significance Difference post-hoc test. One-factor ANOVA was used to detect significant differences in behavioral outcomes within each experimental group over time. A linear regression analysis was used to detect the dose-dependency of the effects. Significance was established at the p<0.05 level.

The mark [7] stands for this setting: Table 11, bovine 1D receptor binding, read-out: 5HT1D.
Setting [8] is: Table 15, read-out: IC50 in μM (Human eNOS).

Structures can show the parent of a compound that is named as a salt. Where two headings read alike, the source gives them in different places.

T2 sequence (P29474 whole entry): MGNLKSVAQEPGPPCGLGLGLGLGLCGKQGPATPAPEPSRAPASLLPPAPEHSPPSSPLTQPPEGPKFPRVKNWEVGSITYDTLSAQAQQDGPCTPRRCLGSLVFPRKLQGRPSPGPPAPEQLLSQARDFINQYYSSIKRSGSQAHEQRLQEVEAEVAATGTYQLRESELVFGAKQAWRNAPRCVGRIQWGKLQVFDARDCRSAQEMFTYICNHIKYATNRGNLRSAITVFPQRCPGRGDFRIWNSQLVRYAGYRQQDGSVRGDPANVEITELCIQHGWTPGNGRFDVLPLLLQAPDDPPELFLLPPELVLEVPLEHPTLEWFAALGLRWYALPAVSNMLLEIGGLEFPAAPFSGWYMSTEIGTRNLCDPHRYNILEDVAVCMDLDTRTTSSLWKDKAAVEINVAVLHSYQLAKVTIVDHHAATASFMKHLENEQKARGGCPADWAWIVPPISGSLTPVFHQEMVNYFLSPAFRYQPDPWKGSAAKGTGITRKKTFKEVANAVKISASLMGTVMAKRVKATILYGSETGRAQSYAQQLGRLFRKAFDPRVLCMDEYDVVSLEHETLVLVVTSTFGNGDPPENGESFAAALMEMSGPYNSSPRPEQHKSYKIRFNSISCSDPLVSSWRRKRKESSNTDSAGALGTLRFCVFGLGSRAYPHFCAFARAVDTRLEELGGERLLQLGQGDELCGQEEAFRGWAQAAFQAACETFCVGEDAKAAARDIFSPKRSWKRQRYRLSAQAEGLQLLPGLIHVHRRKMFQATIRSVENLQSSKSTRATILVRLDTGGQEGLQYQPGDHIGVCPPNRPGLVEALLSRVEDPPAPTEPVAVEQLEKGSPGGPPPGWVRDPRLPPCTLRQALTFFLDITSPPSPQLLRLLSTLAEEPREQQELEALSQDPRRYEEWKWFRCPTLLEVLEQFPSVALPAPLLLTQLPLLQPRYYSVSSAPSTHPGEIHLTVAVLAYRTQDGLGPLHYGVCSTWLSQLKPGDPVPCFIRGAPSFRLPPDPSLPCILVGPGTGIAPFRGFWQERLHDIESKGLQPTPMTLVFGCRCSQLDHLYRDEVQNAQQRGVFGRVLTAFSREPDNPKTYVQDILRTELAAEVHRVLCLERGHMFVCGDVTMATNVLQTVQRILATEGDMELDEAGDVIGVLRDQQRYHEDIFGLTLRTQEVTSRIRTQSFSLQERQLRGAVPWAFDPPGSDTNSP
T1 sequence (P29475 whole entry): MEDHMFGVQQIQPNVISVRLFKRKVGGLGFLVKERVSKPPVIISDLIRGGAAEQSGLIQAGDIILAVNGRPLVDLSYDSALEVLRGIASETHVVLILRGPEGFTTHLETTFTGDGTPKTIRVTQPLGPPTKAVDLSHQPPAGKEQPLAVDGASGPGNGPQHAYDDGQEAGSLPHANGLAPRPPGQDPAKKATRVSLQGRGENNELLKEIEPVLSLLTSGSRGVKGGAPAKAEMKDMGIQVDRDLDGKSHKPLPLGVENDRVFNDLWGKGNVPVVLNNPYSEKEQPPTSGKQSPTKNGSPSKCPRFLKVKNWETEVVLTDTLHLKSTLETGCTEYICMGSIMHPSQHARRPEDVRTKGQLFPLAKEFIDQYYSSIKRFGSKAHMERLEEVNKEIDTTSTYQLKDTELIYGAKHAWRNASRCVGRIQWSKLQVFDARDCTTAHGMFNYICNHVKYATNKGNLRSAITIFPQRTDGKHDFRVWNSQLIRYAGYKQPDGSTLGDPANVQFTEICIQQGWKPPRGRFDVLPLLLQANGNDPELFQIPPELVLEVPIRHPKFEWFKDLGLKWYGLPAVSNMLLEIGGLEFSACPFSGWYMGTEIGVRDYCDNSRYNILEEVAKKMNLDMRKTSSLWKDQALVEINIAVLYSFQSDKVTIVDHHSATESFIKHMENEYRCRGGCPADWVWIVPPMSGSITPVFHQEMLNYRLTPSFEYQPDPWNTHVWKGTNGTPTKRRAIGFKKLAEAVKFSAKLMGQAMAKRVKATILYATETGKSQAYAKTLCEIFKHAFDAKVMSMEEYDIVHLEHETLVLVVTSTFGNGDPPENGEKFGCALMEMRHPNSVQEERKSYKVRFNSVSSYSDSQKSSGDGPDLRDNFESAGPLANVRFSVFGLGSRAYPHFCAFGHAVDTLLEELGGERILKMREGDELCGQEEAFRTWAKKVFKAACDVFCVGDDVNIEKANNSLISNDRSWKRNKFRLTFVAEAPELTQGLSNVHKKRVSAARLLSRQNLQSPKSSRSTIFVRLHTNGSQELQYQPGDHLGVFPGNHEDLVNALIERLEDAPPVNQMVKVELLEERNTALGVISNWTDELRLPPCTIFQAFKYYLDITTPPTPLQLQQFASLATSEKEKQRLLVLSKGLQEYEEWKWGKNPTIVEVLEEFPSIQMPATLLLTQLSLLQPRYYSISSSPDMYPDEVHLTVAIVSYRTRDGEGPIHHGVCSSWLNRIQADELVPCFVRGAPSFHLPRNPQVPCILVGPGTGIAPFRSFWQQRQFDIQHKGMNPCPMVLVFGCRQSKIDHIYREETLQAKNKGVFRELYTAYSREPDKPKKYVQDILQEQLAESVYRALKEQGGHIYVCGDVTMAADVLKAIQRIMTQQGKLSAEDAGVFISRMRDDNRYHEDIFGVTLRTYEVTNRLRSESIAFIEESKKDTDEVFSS
5-HT1D, sequence (F1MMU1 1-377): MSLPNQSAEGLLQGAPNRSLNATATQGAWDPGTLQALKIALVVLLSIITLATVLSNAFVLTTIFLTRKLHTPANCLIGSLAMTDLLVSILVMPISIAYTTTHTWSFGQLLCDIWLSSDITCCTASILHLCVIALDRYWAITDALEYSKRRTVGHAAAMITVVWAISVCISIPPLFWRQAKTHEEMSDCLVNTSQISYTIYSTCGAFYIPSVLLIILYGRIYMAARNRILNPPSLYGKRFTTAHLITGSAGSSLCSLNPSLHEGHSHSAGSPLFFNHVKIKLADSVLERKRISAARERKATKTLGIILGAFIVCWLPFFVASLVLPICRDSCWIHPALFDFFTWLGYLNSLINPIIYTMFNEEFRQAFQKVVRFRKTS

`CCNC1CCC(c2c[nH]c3ccc(NC(=N)c4cccs4)cc23)C1` (mixture of isomers) [Compound 26, N-(3-(3-(ethylamino)cyclopentyl)-1H-indol-5-yl)thiophene-2-carboximidamide]: in assay [1] (Table 15, selectivity ratio), the eNOS/nNOS is reported as 55.6.

Regarding `CN1CCC(c2c[nH]c3ccc(NC(=N)c4cccs4)cc23)C1` (racemic) [Compound 6, N-(3-(1-methylpyrrolidin-3-yl)-1H-indol-5-yl)thiophene-2-carboximidamide], the IC50 in assay [2] (setting [7]) came out at 0.19 µM; in assay [1] (Table 10, human nNOS, read-out: nNOSh), 0.4 µM; in assay [3] (Table 10, human eNOS, read-out: eNOSh), 38.7 µM; in assay [4] (Table 11, rat 1B receptor binding), 0.85 µM; in assay [5] it was 35 µM. Besides, the e/n in assay [1] (Table 10, ratio eNOS/nNOS) was found to be 97.

For the compound `CNC1CCCC(c2c[nH]c3ccc(NC(=N)c4cccs4)cc23)C1` (racemic) [Compound (±)-20, N-(3-((1S,3R)-3-(Methylamino)cyclohexyl)-1H-indol-5-yl)thiophene-2-carboximidamide], the IC50 in assay [2] (read-out: 5HT 1D, Table 14) came out at 2.8 µM; in assay [4] (Table 14, read-out: 5HT 1B), 20 µM.

`CNC1CCCC(c2c[nH]c3ccc(NC(=N)c4cccs4)cc23)C1` (single isomer, unassigned) [Compound 20a, N-(3-(3-(methylamino)cyclohexyl)-1H-indol-5-yl)thiophene-2-carboximidamide dihydrochloride]: the IC50 in assay [2] (read-out: 5HT 1D, Table 14, listed as 20a (isomer-1), dihydrochloride) was 3.2 µM; in assay [3] (Table 14, read-out: Human eNOS), 49.3 µM; in assay [4] (Table 14, read-out: 5HT 1B), 1.3 µM.

Consider `CNC1CCCC(c2c[nH]c3ccc(NC(=N)c4cccs4)cc23)C1` (single isomer, unassigned) [Compound 20b, N-(3-(3-(methylamino)cyclohexyl)-1H-indol-5-yl)thiophene-2-carboximidamide dihydrochloride], for which the IC50 in assay [2] (read-out: 5HT 1D, Table 14, listed as 20b (isomer-2), dihydrochloride) is 1.4 µM; in assay [3] (Table 14, read-out: Human eNOS), 75 µM; in assay [4] (Table 14, read-out: 5HT 1B) it was 12 µM.

`CCN1CC=C(c2c[nH]c3ccc(NC(=N)c4cccs4)cc23)CC1` [Compound 19, N-(3-(1-ethyl-1,2,3,6-tetrahydropyridin-4-yl)-1H-indol-5-yl)thiophene-2-carboximidamide]: the eNOS/nNOS in assay [1] (Table 13, selectivity ratio) was 92.4. The IC50 was 0.74 µM in assay [1] (Table 13, read-out: Human nNOS) and 68.4 µM in assay [3] (Table 13, read-out: Human eNOS).

As for `N=C(Nc1ccc2[nH]cc(C3=CCN(CCO)CC3)c2c1)c1cccs1` [Compound 24, N-(3-(1-(2-hydroxyethyl)-1,2,3,6-tetrahydropyridin-4-yl)-1H-indol-5-yl)thiophene-2-carboximidamide], the eNOS/nNOS in assay [1] (Table 15, selectivity ratio) is 99. The IC50 in assay [1] (Table 15, read-out: IC50 in μM (Human nNOS)) was found to be 0.748 µM; in assay [3] (setting [8]), 74.1 µM.

For `N=C(Nc1ccc2[nH]cc(CCN3CCCC3)c2c1)c1cccs1` [Compound 25, N-(3-(2-(pyrrolidin-1-yl)ethyl)-1H-indol-5-yl)thiophene-2-carboximidamide], the IC50 in assay [1] (IC50 in μM (Human nNOS), Table 15) is 0.427 µM; in assay [3] (setting [8]), 9.92 µM. For the same compound, in assay [1] (Table 15, selectivity ratio), the eNOS/nNOS is 23.2.

On to `CN1CCC[C@@H]1Cc1c[nH]c2ccc(NC(=N)c3cccs3)cc12` [Compound 27, (R)—N-(3-((1-Methylpyrrolidin-2-yl)methyl)-1H-indol-5-yl)thiophene-2-carboximidamide], for which the “reversal of tactile allodynia in pancreatitis visceral pain model” value in assay [6] is given as “reverts the tactile allodynia”.

As for `CNS(=O)(=O)Cc1ccc2[nH]cc(CCN(C)C)c2c1` [Sumatriptan, reference compound], the IC50 in assay [2] (setting [7]) worked out at 0.059 µM.
